Measurements reported in PubChem BioAssay AID2060507 (Molecular Pharmacology Branch, DTP, NCI, 2025).
pIC50: −log10 of the molar value.

Tested on: 519858-162-T-J1-PDC complex spheroid viability
Assay: Anticancer human tumor 519858-162-T-J1-PDC patient-derived colon adenocarcinoma cell line growth inhibition [GQUAD]
Settings: for pIC50: curve of first compound; for viability, T/C: stronger effect = lower value
Outline: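 Multi-cell-type spheroids of tumor cells with HUVEC and mesenchymal stem cells, treated with drug combinations. Concentrations descend in half-log steps from near clinical Cmax, or from 10 microM where Cmax is unknown; viability read-out.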

[1] = second compound 0.0316 µM, first compound 0.0316 µM
[2] = second compound 0.0316 µM, first compound 0.1 µM
[3] = second compound 0.0316 µM, first compound 0.316 µM
[4] = second compound 0.0316 µM, first compound 1 µM
[5] = second compound 0.0316 µM, first compound 3.16 µM
[6] = second compound 0.0316 µM, first compound 10 µM
[7] = second compound 0.1 µM, first compound 0.0316 µM
[8] = second compound 0.1 µM, first compound 0.1 µM
[9] = second compound 0.1 µM, first compound 0.316 µM
[10] = second compound 0.1 µM, first compound 1 µM
[11] = second compound 0.1 µM, first compound 3.16 µM
[12] = second compound 0.1 µM, first compound 10 µM
[13] = second compound 0.316 µM, first compound 0.0316 µM
[14] = second compound 0.316 µM, first compound 0.1 µM
[15] = second compound 0.316 µM, first compound 0.316 µM
[16] = second compound 0.316 µM, first compound 1 µM
[17] = second compound 0.316 µM, first compound 3.16 µM
[18] = second compound 0.316 µM, first compound 10 µM
[19] = second compound 1 µM, first compound 0.0316 µM
[20] = second compound 1 µM, first compound 0.1 µM
[21] = second compound 1 µM, first compound 0.316 µM
[22] = second compound 1 µM, first compound 1 µM
[23] = second compound 1 µM, first compound 3.16 µM
[24] = second compound 1 µM, first compound 10 µM
[25] = second compound 3.16 µM, first compound 0.0316 µM
[26] = second compound 3.16 µM, first compound 0.1 µM
[27] = second compound 3.16 µM, first compound 0.316 µM
[28] = second compound 3.16 µM, first compound 1 µM
[29] = second compound 3.16 µM, first compound 3.16 µM
[30] = second compound 3.16 µM, first compound 10 µM
[31] = second compound 10 µM, first compound 0.0316 µM
[32] = second compound 10 µM, first compound 0.1 µM
[33] = second compound 10 µM, first compound 0.316 µM
[34] = second compound 10 µM, first compound 1 µM
[35] = second compound 10 µM, first compound 3.16 µM
[36] = second compound 10 µM, first compound 10 µM
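Further: spheroids exposed to compounds for 7 days.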
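Wherever viability, T/C is given: 100% = DMSO vehicle control viability.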

C=CC(=O)N1CCN(c2nc(=O)n(-c3c(C)ccnc3C(C)C)c3nc(-c4c(O)cccc4F)c(F)cc23)C(C)C1 (stereo unspecified) + CN(C)c1ccc(Nc2c3ccc(NC(=O)CCN4CCCC4)cc3nc3cc(NC(=O)CCN4CCCC4)ccc23)cc1
pIC50 (second compound 0.0316 µM): < 5.00
pIC50 (second compound 0.1 µM): < 5.00
pIC50 (second compound 0.316 µM): < 5.00
pIC50 (second compound 1 µM): < 5.00
pIC50 (second compound 3.16 µM): < 5.00
pIC50 (second compound 10 µM): > 7.50
viability, T/C [1]: 91.5%
viability, T/C [2]: 84.4%
viability, T/C [3]: 61.4%
viability, T/C [4]: 69.3%
viability, T/C [5]: 94%
viability, T/C [6]: 110%
viability, T/C [7]: 81.7%
viability, T/C [8]: 72.3%
viability, T/C [9]: 80.3%
viability, T/C [10]: 61.8%
viability, T/C [11]: 84.1%
viability, T/C [12]: 95.8%
viability, T/C [13]: 88.3%
viability, T/C [14]: 80.8%
viability, T/C [15]: 120%
viability, T/C [16]: 68.8%
viability, T/C [17]: 84%
viability, T/C [18]: 60.1%
viability, T/C [19]: 78.8%
viability, T/C [20]: 74.4%
viability, T/C [21]: 56.4%
viability, T/C [22]: 69.3%
viability, T/C [23]: 78.7%
viability, T/C [24]: 80.3%
viability, T/C [25]: 62.3%
viability, T/C [26]: 63.9%
viability, T/C [27]: 68.8%
viability, T/C [28]: 62.2%
viability, T/C [29]: 47.6%
viability, T/C [30]: 94.9%
viability, T/C [31]: 48.2%
viability, T/C [32]: 40.3%
viability, T/C [33]: 56.7%
viability, T/C [34]: 61.5%
viability, T/C [35]: 49.2%
viability, T/C [36]: 66.5%

CC1COCCN1c1cc(-c2ccnn2C)c2ccnc(-c3ccn[nH]3)c2n1 (stereo unspecified) + CN(C)c1ccc(Nc2c3ccc(NC(=O)CCN4CCCC4)cc3nc3cc(NC(=O)CCN4CCCC4)ccc23)cc1
pIC50 (second compound 0.0316 µM): 5.37
pIC50 (second compound 0.1 µM): 5.36
pIC50 (second compound 0.316 µM): 5.15
pIC50 (second compound 1 µM): 5.32
pIC50 (second compound 3.16 µM): 5.27
pIC50 (second compound 10 µM): 5.35
viability, T/C [1]: 87.2%
viability, T/C [2]: 125%
viability, T/C [3]: 88%
viability, T/C [4]: 101%
viability, T/C [5]: 54%
viability, T/C [6]: 38%
viability, T/C [7]: 78.2%
viability, T/C [8]: 106%
viability, T/C [9]: 86.4%
viability, T/C [10]: 124%
viability, T/C [11]: 55.4%
viability, T/C [12]: 36.1%
viability, T/C [13]: 91.3%
viability, T/C [14]: 86.8%
viability, T/C [15]: 79.3%
viability, T/C [16]: 101%
viability, T/C [17]: 79.6%
viability, T/C [18]: 37.4%
viability, T/C [19]: 100%
viability, T/C [20]: 85.7%
viability, T/C [21]: 73.8%
viability, T/C [22]: 102%
viability, T/C [23]: 63.4%
viability, T/C [24]: 25.3%
viability, T/C [25]: 87.5%
viability, T/C [26]: 83.9%
viability, T/C [27]: 106%
viability, T/C [28]: 92.4%
viability, T/C [29]: 58.7%
viability, T/C [30]: 39.5%
viability, T/C [31]: 71.2%
viability, T/C [32]: 101%
viability, T/C [33]: 73.5%
viability, T/C [34]: 100%
viability, T/C [35]: 51.1%
viability, T/C [36]: 47.3%

CC1COCCN1c1cc(C2(O)CC3CCC(C2)O3)c2cnn(-c3ccn[nH]3)c2n1 (stereo unspecified) + CN(C)c1ccc(Nc2c3ccc(NC(=O)CCN4CCCC4)cc3nc3cc(NC(=O)CCN4CCCC4)ccc23)cc1
pIC50 (second compound 0.0316 µM): 5.08
pIC50 (second compound 0.1 µM): < 5.00
pIC50 (second compound 0.316 µM): < 5.00
pIC50 (second compound 1 µM): 5.03
pIC50 (second compound 3.16 µM): < 5.00
pIC50 (second compound 10 µM): < 5.00
viability, T/C [1]: 84.3%
viability, T/C [2]: 89%
viability, T/C [3]: 87.3%
viability, T/C [4]: 90.2%
viability, T/C [5]: 114%
viability, T/C [6]: 42%
viability, T/C [7]: 77.5%
viability, T/C [8]: 76.9%
viability, T/C [9]: 76.5%
viability, T/C [10]: 73.5%
viability, T/C [11]: 75.2%
viability, T/C [12]: 71.6%
viability, T/C [13]: 106%
viability, T/C [14]: 65.5%
viability, T/C [15]: 98.2%
viability, T/C [16]: 105%
viability, T/C [17]: 113%
viability, T/C [18]: 57%
viability, T/C [19]: 104%
viability, T/C [20]: 75.6%
viability, T/C [21]: 99.8%
viability, T/C [22]: 79.2%
viability, T/C [23]: 88.4%
viability, T/C [24]: 47.8%
viability, T/C [25]: 71.1%
viability, T/C [26]: 66.8%
viability, T/C [27]: 98.3%
viability, T/C [28]: 73.2%
viability, T/C [29]: 74.3%
viability, T/C [30]: 65.3%
viability, T/C [31]: 85%
viability, T/C [32]: 81%
viability, T/C [33]: 59.9%
viability, T/C [34]: 60.7%
viability, T/C [35]: 76.5%
viability, T/C [36]: 43.1%
